Assays:
[1] = system: hypocretin cell ablated narcoleptic mice (prepororexin/ataxin-3 transgenic); test: Sleep parameters (EEG/EMG polygraph) in narcoleptic mice; format: in vivo; settings: for wake-promoting effects (magnitude): active (dark) period; for wakefulness (dose dependence): active period (dosed PO at ZT 14); for wake-promoting effects: resting period (dosed PO at ZT 2); for duration of continuous wakefulness: most narcoleptic mice
Excerpt: (§1) The polygraph signal (EEG and EMG) was captured with SleepSign (Kissel Comtech), and the sleep stage was visually scored with 10 sec epoch for wakefulness, non-REM sleep and REM sleep. Scoring criteria are: Wakefulness is characterized by desynchronized low-amplitude, mixed frequency (>4 Hz) EEG and high EMG activity. Rhythmic alpha (8-9 Hz) wave (with high EMG activities) may also appear. Non-REM is characterized by synchronized, high-amplitude, low-frequency (0.25-4 Hz) with reduced EMG activity (compared to wakefulness). EEG activity in REM sleep is similar to that in wakefulness, with desynchronized, mixed frequency low amplitude waves. Rhythmic alpha (8-9 Hz) wave with reduced EMG activities may also appear. […] activity during REM sleep is reduced even further and in many cases, completely absent. Some muscle twitching may be apparent in the EMG trace during REM sleep.
(§2) Three drug doses of the test compound (50, 100 and 150 mg/kg PO) plus vehicle, was orally administered at ZT 2 (2 hours after light on) or ZT 14 (2 hours after light off), and the effects on sleep was monitored for 6 hours after the drug administration (the sleep data was collected for 30 hours after the drug injection, and are available for further analysis). The doses for modafinil were 50 and 200 mg/kg PO (plus vehicle), and modafinil was also administered at ZT 2 and ZT14.
(§3) If the polygraph signals of some mice were not sufficient to score the sleep stage with accuracy (especially bad EMG), data from these animals were excluded, and the minimum of 5 animals (except for the highest dose of the test compound in wild-type mice in dark period, n=4) were included for the data analysis and number of animals were indicated in the figures.
(§4) Effects of test compound and modafinil on the amount of wake, non-REM sleep, REM sleep (cumulative seconds), number of episodes for each sleep stage during 6 hours, mean wake/sleep-bout lengths (seconds) were analyzed in each animal and the mean of each parameter was calculated in each genotype. The effects of compounds on wake and sleep amounts are useful to evaluate the wake promoting potency, and the number of episodes for each sleep stage and the mean wake/sleep bout length are parameters for evaluating the sleep fragmentation. Amphetamine and modafinil, two main wake-promoting compounds currently used for the treatment of EDS associated with various etiologies (narcolepsy, idiopathic hypersomnia and secondary EDS), are known to increase wake time and prolong wake bout length in normal and EDS conditions.
(§5) A comparison of the effects between hypocretin deficient and wild-type mice is very useful in determining if the wake-promotion of the test compound is dependent on the availability of hypocretins, and if there is a possible change in the sensitivity of the receptive mechanisms of test compound in narcoleptic mice due to the hypocretin ligand deficiency.

[2] = system: littermate wild-type mice; test: Sleep parameters (EEG/EMG polygraph) in littermate wild-type mice; format: in vivo; settings: for wake-promoting effects: resting period (dosed PO at ZT 2); for duration of continuous wakefulness: most wild-type mice
Excerpt: as §1, §2, §3, §4, §5

Male CD-1 mice = test: Forced swimming test in mice; format: in vivo; settings: for mean duration of immobility: mice
Protocol: (§6) Male CD-1 mice (16-24 g) and male Wistar rats (90-125 g) were utilized in these experiments. The test compound (10, 15 and 30 mg/kg) was dissolved in physiological saline (0.9%) and administered orally PO in a volume of 1 mL/100 g body weight.
(§7) Mice and rats were placed in glass cylinders (1000 ml beakers; height 14 cm, diameter 11.5 cm) and (4000 ml beakers; height 24.5 cm, diameter 18.0 cm) respectively, containing water (25 degrees Celsius) up to a height of 9.0 cm for mice and 19.0 for rats. […] Immobility was defined as lack of movement, such as floating in the water with little or no movement of hind legs. Duration of immobility was timed with a stopwatch and recorded. In some experiments, mice or rats were allowed to swim for 6 or 10 minutes, respectively, one day prior to the forced swimming experiment.
(§8) In the single dose test, mice or rats were given test compound or 0.9% NaCl and placed in glass cylinders 1 hour or 4 hours post-treatment, respectively. In the multiple dose experiments, mice were dosed twice a day for 3 days and given an additional dose on Day 4. In addition, the mice were placed in the glass cylinders containing water at 25 degrees Celsius and allowed to swim for six minutes on Day 3. Statistical evaluation was performed using a computer program based on probit analysis. Statistical significance was determined using Student's t-test at a P value of <0.05.

male Wistar rats = test: Forced swimming test in rats; format: in vivo; settings: 4 hours post-treatment
Protocol: as §6, §7, §8

[3] = system: rats with sciatic nerve ligation; test: Thermal hyperalgesia (hindpaw withdrawal latency, plantar tester) in rats with sciatic nerve ligation; format: in vivo, Sprague-Dawley rats; settings: 30 mg/kg IP; for mean paw withdrawal latency: n = 6
Protocol: Young adult male Sprague-Dawley rats (CD(SD)IGS, 150-200 g) were initially anesthetized with isoflurane in O2 by a mask and the surgical procedure was performed according to the method described by Bennett and Xie (1988). Briefly, the right sciatic nerves were loosely tied using ligatures. All experiments were conducted in accordance with the guidelines of the International Association for the Study of Pain. The behavioral tests were conducted at least 14 days postoperatively.
The test compound was dissolved in saline and administered intraperitoneally at 30 mg/kg to animals in a volume of 3 mL/kg body weight.
To test for thermal hyperalgesia, the thermal response was determined by the hindpaw withdrawal latency, using a plantar tester (UGO BASILE, Italy), and a modified method of Hargreaves et al. (1988). Rats were allowed to acclimate within plastic enclosures on a clear glass plate maintained at room temperature. A radiant heat source (intensity 90) was controlled with a timer and focused onto the plantar surface of the rat right hind paw encompassing the glabrous skin. Paw withdrawal stopped both heat source and timer. A maximal cut-off 30 sec was used to prevent tissue damage. Rats were assessed for thermal hyperalgesia predose (0 hr) and at 1, 4 and 8 hours after 30 mg/kg test compound administration.
Data are expressed as mean±standard error of mean (SEM). The values of behavioral signs of neuropathic pain at various postoperative time points were compared with those of the preoperative control period by a repeated-measure One-way Analysis of Variance (followed by Dunnett's post-hoc test). P-values less than 0.05 were considered to be significant.

[4] = resting period, genotypes not distinguished

NC(=O)C[S+]([O-])C(c1ccccc1)c1ccccc1 (stereo not drawn) [modafinil, reference compound]
wake amount ([1]; 200 mg/kg (high dose), active period, narcoleptic mice): did not bring the wake amount to that of the wild-type baseline levels | wake-promoting effects (magnitude) ([1]; narcoleptic mice): much weaker | wakefulness (dose dependence) ([1]; narcoleptic mice): dose-dependently increase | dose of test compound to which the wake promoting effect of modafinil roughly corresponds ([1]; modafinil 200 mg/kg PO, resting period, genotypes not distinguished): ~50 mg/kg | wake-promoting effects ([1]; narcoleptic mice): modest | REM sleep [1, 4]: did not strongly reduce REM sleep | wake-promoting effects ([2]; wild-type mice): modest

NC(=O)OC[C@H](N)Cc1ccccc1 [test compound, O-carbamoyl-(D)-phenylalaminol]
duration of continuous wakefulness ([1]; 50 mg/kg PO, resting period): up to 3 hours | duration of continuous wakefulness ([1]; 100 mg/kg PO, resting period): ≤ 4 h | wake amounts ([1]; 100 mg/kg, active period, narcoleptic mice): brought up to the levels of wild-type mice | duration of continuous wakefulness ([1]; 150 mg/kg PO, resting period): ≤ 5 h | wake amounts ([1]; 150 mg/kg, active period, narcoleptic mice): brought up to the levels of wild-type mice | Non-REM and REM sleep during the period of continuous wakefulness ([1]; 50, 100, 150 mg/kg PO, resting period, narcoleptic mice): completely suppressed | sleep patterns of narcoleptic mice ([1]; 50-150 mg/kg PO): normalize | bouts of wakefulness ([1]; 50-150 mg/kg PO, narcoleptic mice): significantly increased | wake-promoting effects (magnitude) ([1]; narcoleptic mice): much pronounced | wakefulness (dose dependence) ([1]; narcoleptic mice): dose-dependently increased | amounts of non-REM and REM sleep ([1]; active period, narcoleptic mice): brought down to the levels of wild-type mice | sleep that occurred after the prolonged wakefulness ([1]; polygraphic assessments, resting period, genotypes not distinguished): normal | wake-promoting effects ([1]; narcoleptic mice): Very potent | REM sleep [1, 4]: potently reduced | EEG patterns after administration ([1]; resting period, wild-type and narcoleptic mice not distinguished): no abnormal EEG patterns | duration of continuous wakefulness ([2]; 50 mg/kg PO, resting period): up to 3 hours | duration of continuous wakefulness ([2]; 100 mg/kg PO, resting period): ≤ 4 h | duration of continuous wakefulness ([2]; 150 mg/kg PO, resting period): ≤ 5 h | Non-REM and REM sleep during the period of continuous wakefulness ([2]; 50, 100, 150 mg/kg PO, resting period, wild-type mice): completely suppressed | bouts of wakefulness ([2]; 50-150 mg/kg PO, wild-type mice): significantly increased | wake-promoting effects (magnitude) ([2]; active (dark) period, wild-type mice, high baseline wakefulness): only small effects | wakefulness (dose dependence) ([2]; active period (dosed PO at ZT 14), wild-type mice): dose-dependently increased | wake-promoting effects ([2]; wild-type mice): Very potent | ED50 (Male CD-1 mice; Mus musculus, multiple dosing PO, mice (twice a day for 3 days plus a dose on Day 4), read-out: ED50 (reduction in mean immobility time)): 5.5 mg/kg | mean duration of immobility (Male CD-1 mice; multiple dosing 3 mg/kg PO, control 85 sec): 63 s | mean duration of immobility (Male CD-1 mice; multiple dosing 5 mg/kg PO, control 136 sec, significant): 73 s | mean duration of immobility (Male CD-1 mice; multiple dosing 8 mg/kg PO, control 114 sec, significant): 39 s | mean duration of immobility (Male CD-1 mice; single dose 10 mg/kg PO, control 131 sec): 101 s | mean duration of immobility (Male CD-1 mice; single dose 15 mg/kg PO, control 154 sec, significant): 80 s | mean duration of immobility (Male CD-1 mice; single dose 30 mg/kg PO, control 132 sec, significant): 30 s | mean duration of immobility (male Wistar rats; 10 mg/kg PO, control 74 sec, not statistically significant): 62 s | mean duration of immobility (male Wistar rats; 15 mg/kg PO, control 65 sec, not statistically significant): 39 s | mean duration of immobility (male Wistar rats; 30 mg/kg PO, control 38 sec, significant): 9 s | mean paw withdrawal latency ([3]; 0 hr (predose baseline)): 5.17 s | mean paw withdrawal latency ([3]; 1 hr post-injection, P < 0.01 vs 0 hr): 6.33 s | mean paw withdrawal latency ([3]; 4 hr post-injection, P < 0.05 vs 0 hr): 6.06 s | mean paw withdrawal latency ([3]; 8 hr post-injection): 5.63 s | paw withdrawal latency to a thermal stimulus (in words) ([3]; vs pre-injection (0 hr) latency): significantly increased | % of Antagonism ([3]; 1 hr vs 0 hr latency): 0.14**(22.3% | % of Antagonism ([3]; 4 hr vs 0 hr latency): 0.21*(17.2%) | % of Antagonism ([3]; 8 hr vs 0 hr latency): 0.16(8.8%)

Source: patent publication US9688620B2, “Methods for treating fibromyalgia syndrome” (SK Biopharmaceuticals Co., Ltd., priority 2009, dated 2017)
